Test [1] has as its system TNFα secretion in THP-1 cells. As to the kind of experiment: Cellular activity assay: LPS-stimulated TNFα secretion in THP-1 cells (ELISA). Format: cell-based. Conditions: Homo sapiens, LPS 1 μg/mL, 4.5 h, read-out: IC50 inhibiting TNFα secretion in THP-1 cells stimulated by LPS. The protocol:
Inhibition of IRAK4 by the compounds of the present application was evaluated in THP-1 cells for cellular activity. The stimulus used in this experiment was LPS. LPS is a TLR4 agonist that stimulates the secretion of TNFα through TLR-IRAK4 signaling pathway in the THP-1 cells. Once the signaling pathway is inhibited by IRAK4 inhibitors, the production of TNFα is inhibited. In this experiment, the secretion of TNFα was detected by ELISA.
150 μL of RPMI-1640 medium (Gibco, catalog No.: 11875-085) solution containing 10000 THP-1 cells were added to each well of a 96-well plate and then 25 μL of a test compound solution of 8 times the final concentration (starting from […], 3-fold dilution, 8 concentrations, each concentration containing 4% DMSO RPMI-1640 medium) were added, and they were mixed uniformly and incubated at 37° C. for 30 min. 25 μL of RPMI-1640 medium solution containing LPS were added to each well (the final LPS concentration was 1 μg/mL and the final DMSO concentration was 0.5%), mixed uniformaly, and incubated at 37° C. for 4.5 h. The 96-well plate was rotated at 2000 rpm for 5 min, then 50 μL of supernatant was taken, and the TNFα content in the supernatant was determined with a human ELISA kit (Life Technologies, catalog No.: KHC3011). The IC50 (Table 2) of the compound was calculated by XL-Fit.

The next test addresses IRAK4 kinase (Homo sapiens (Human), UniProt Q9NWZ3). The test is described as follows: IRAK4 kinase activity assay (mobility shift, Km ATP). Format: biochemical. Conditions: Km ATP (15.6 μM ATP), 1 nM IRAK4, 60 min room temperature. As to the method: Inhibitory activity (IC50) of the compounds against IRAK4 kinase under Km ATP was detected through mobility spectrum analysis (MSA). IRAK4 kinase was purchased from Carna (Cat. No.: 09-145, batch No.: 14CBS-0020H), and Kinase Substrate 8 was purchased from GL Biochem (Cat. No.: 112396, batch No.: P171207-MJI112396).
The compounds were prepared with DMSO to 100 times the final reaction concentration and diluted to 10 concentrations in sequence at a 3-fold dilution ratio starting from 1 μM. Then 0.25 μL was transferred to a 384-well plate using Echo550. A 1× kinase buffer (50 mM HEPES, pH=7.5, 0.0015% Brij-35, 10 mM MgCl2, 2 mM DTT) was used to prepare a kinase solution of 2.5 times the final concentration. Then 10 μL of the kinase solution of 2.5 times the final concentration was added to each compound well, shaken and mixed uniformly, and incubated at room temperature for 10 min. A 1× kinase buffer was used to prepare a mixed solution of ATP and substrate Kinase Substrate 8 with a concentration of 25/15 times the final concentration. 15 μL of the mixed solution of ATP and the substrate with a concentration of 25/15 times the final concentration were added to each well (the final concentration of IRAK4 kinase was 1 nM, the final concentration of the substrate was 3 μM, and the final concentration of ATP was 15.6 μM), shaken and mixed uniformly, and reacted at room temperature for 60 min. Finally, 30 μL of stopping solution (100 mM HEPES, pH=7.5, 0.0015% Brij-35, 0.2% Coating Reagent #3, 50 mM EDTA) was added to terminate the reaction. CaliperEZ Reader II was used to read data about conversion rates that was then converted into data about inhibition rates. According to the data about the inhibition rate at each concentration, the half maximal inhibitory concentration (IC50) (Table 1) was calculated by a Logit method.

Chain of IRAK4 kinase (Q9NWZ3 whole entry): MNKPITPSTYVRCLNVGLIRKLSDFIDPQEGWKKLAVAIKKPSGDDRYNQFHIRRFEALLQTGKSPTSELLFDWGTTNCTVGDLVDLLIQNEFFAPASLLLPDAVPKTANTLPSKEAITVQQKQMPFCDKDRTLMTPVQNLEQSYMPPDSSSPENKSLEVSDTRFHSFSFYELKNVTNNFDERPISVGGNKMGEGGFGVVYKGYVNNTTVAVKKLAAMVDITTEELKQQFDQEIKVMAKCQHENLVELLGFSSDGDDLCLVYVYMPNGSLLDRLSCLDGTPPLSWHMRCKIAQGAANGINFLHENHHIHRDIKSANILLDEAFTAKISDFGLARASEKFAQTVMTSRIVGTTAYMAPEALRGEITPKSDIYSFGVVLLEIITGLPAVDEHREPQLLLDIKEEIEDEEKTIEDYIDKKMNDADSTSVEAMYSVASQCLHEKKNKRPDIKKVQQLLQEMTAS

By IC50 is commonly meant the midpoint of a concentration-inhibition curve. Consider `CC(=O)N1CCC(N2CC(n3cc(NC(=O)c4cccc(-c5cnn(CC(F)F)c5)n4)c(C(F)F)n3)C2)CC1` [Example 1, N-(1-(1-(1-acetylpiperidin-4-yl)azetidin-3-yl)-3-(difluoromethyl)-1H-pyrazol-4-yl)-6-(1-(2,2-difluoroethyl)-1H-pyrazol-4-yl)-2-picolinamide], for which the IC50 stood at 29 nM in test [1] and 1.2 nM on IRAK4 kinase.

As to `O=C(Nc1cn(C2CN(C3CCN(C(=O)CO)CC3)C2)nc1C(F)F)c1cccc(-c2cnn(CC(F)F)c2)n1` [Example 2, 6-(1-(2,2-Difluoroethyl)-1H-pyrazol-4-yl)-N-(3-(difluoromethyl)-1-(1-(1-(2-hydroxyacetyl)piperidin-4-yl)azetidin-3-yl)-1H-pyrazol-4-yl)-2-picolinamide], the concentration for half-maximal inhibition (IC50) in test [1] was found to be 27 nM; on IRAK4 kinase, 0.99 nM.

For `CC(=O)N1CCC(N2CC(n3cc(NC(=O)c4cccc(-c5cnn(CC(F)(F)F)c5)n4)c(C(F)F)n3)C2)CC1` [Example 3, N-(1-(1-(1-acetylpiperidin-4-yl)azetidin-3-yl)-3-(difluoromethyl)-1H-pyrazol-4-yl)-6-(1-(2,2,2-trifluoroethyl)-1H-pyrazol-4-yl)-2-picolinamide], the results for the concentration for half-maximal inhibition (IC50) (in test [1]; on IRAK4 kinase) were 35 nM and 0.87 nM, respectively.

For the compound `O=C(Nc1cn(C2CN(C3CCN(C(=O)CO)CC3)C2)nc1C(F)F)c1cccc(-c2cnn(CC(F)(F)F)c2)n1` [Example 4, N-(3-(difluoromethyl)-1-(1-(1-(2-hydroxyacetyl)piperidin-4-yl)azetidin-3-yl)-1H-pyrazol-4-yl)-6-(1-(2,2,2-trifluoroethyl)-1H-pyrazol-4-yl)-2-picolinamide], the IC50 in test [1] worked out at 33 nM; on IRAK4 kinase, 0.68 nM.

As for `CC(=O)N1CCC(N2CC(n3cc(NC(=O)c4cccc(-c5cnn(C(C)(C)C#N)c5)n4)c(C(F)F)n3)C2)CC1` [Example 12, N-(1-(1-(1-acetylpiperidin-4-yl)azetidin-3-yl)-3-(difluoromethyl)-1H-pyrazol-4-yl)-6-(1-(2-cyanopropan-2-yl)-1H-pyrazol-4-yl)-2-picolinamide], the values for the 50% inhibitory concentration (IC50) (in test [1]; at IRAK4 kinase) were 43 nM and 0.91 nM, respectively.

Take `CC(=O)N1CCC(N2CC(n3cc(NC(=O)c4cccc(-c5cnn(C(C)(C)CN)c5)n4)c(C(F)F)n3)C2)CC1` [Example 13, N-(1-(1-(1-acetylpiperidin-4-yl)azetidin-3-yl)-3-(difluoromethyl)-1H-pyrazol-4-yl)-6-(1-(1-amino-2-methylpropan-2-yl)-1H-pyrazol-4-yl)-2-picolinamide]: the 50% inhibitory concentration (IC50) in test [1] worked out at 25 nM; at IRAK4 kinase, 0.73 nM.

As for `CC(=O)N1CCC(N2CC(n3cc(NC(=O)c4cccc(-c5cc[nH]n5)n4)c(C(F)F)n3)C2)CC1` [Example 24, N-(1-(1-(1-acetylpiperidin-4-yl)azetidin-3-yl)-3-(difluoromethyl)-1H-pyrazol-4-yl)-6-(1H-pyrazole-3-yl)-2-picolinamide], the IC50 in test [1] turned out to be 20 nM; on IRAK4 kinase, 0.59 nM.

`O=C(Nc1cn(C2CN(C3CCN(C(=O)CO)CC3)C2)nc1C(F)F)c1cccc(-c2cc[nH]n2)n1` [Example 27, N-(3-(difluoromethyl)-1-(1-(1-(2-hydroxyacetyl)piperidin-4-yl)azetidin-3-yl)-1H-pyrazol-4-yl)-6-(1H-pyrazol-3-yl)-2-picolinamide]: the IC50 in test [1] was 18 nM; on IRAK4 kinase, 0.51 nM.

With `C[C@@H](O)C(=O)N1CCC(N2CC(n3cc(NC(=O)c4cccc(-c5cnn(CC(F)(F)F)c5)n4)c(C(F)F)n3)C2)CC1` [Example 31, (R)—N-(3-(difluoromethyl)-1-(1-(1-(2-hydroxypropionyl)piperidin-4-yl)azetidin-3-yl)-1H-pyrazol-4-yl)-6-(1-(2,2,2-trifluoroethyl)-1H-pyrazol-4-yl)-2-picolinamide], the IC50 in test [1] was determined as 42 nM; on IRAK4 kinase, 0.79 nM.

For `CC(C)(O)C(=O)N1CCC(N2CC(n3cc(NC(=O)c4cccc(-c5cnn(CC(F)(F)F)c5)n4)c(C(F)F)n3)C2)CC1` [Example 32, N-(3-(difluoromethyl)-1-(1-(1-(2-hydroxy-2-methylpropionyl)piperidin-4-yl)azetidin-3-yl)-1H-pyrazol-4-yl)-6-(1-(2,2,2-trifluoroethyl)-1H-pyrazol-4-yl)-2-picolinamide], the IC50 came to 52 nM in test [1] and 0.97 nM on IRAK4 kinase.

Consider `C[C@H](O)C(=O)N1CCC(N2CC(n3cc(NC(=O)c4cccc(-c5cnn(CC(F)F)c5)n4)c(C(F)F)n3)C2)CC1` [Example 34, (S)-6-(1-(2,2-difluoroethyl)-1H-pyrazol-4-yl)-N-(3-(difluoromethyl)-1-(1-(1-(2-hydroxypropionyl)piperidin-4-yl)azetidin-3-yl)-1H-pyrazol-4-yl)-2-picolinamide], for which the IC50 in test [1] was 46 nM; on IRAK4 kinase, 1 nM.

Regarding `C[C@@H](O)C(=O)N1CCC(N2CC(n3cc(NC(=O)c4cccc(-c5cnn(CC(F)F)c5)n4)c(C(F)F)n3)C2)CC1` [Example 35, (R)-6-(1-(2,2-difluoroethyl)-1H-pyrazol-4-yl)-N-(3-(difluoromethyl)-1-(1-(1-(2-hydroxypropionyl)piperidin-4-yl)azetidin-3-yl)-1H-pyrazol-4-yl)-2-picolinamide], the IC50 in test [1] came to 48 nM; at IRAK4 kinase it was 1.3 nM.

For `CC(C)(O)C(=O)N1CCC(N2CC(n3cc(NC(=O)c4cccc(-c5cnn(CC(F)F)c5)n4)c(C(F)F)n3)C2)CC1` [Example 36, 6-(1-(2,2-Difluoroethyl)-1H-pyrazol-4-yl)-N-(3-(difluoromethyl)-1-(1-(1-(2-hydroxy-2-methylpropionyl)piperidin-4-yl)azetidin-3-yl)-1H-pyrazol-4-yl)-2-picolinamide], the IC50 in test [1] is 50 nM; at IRAK4 kinase, 0.96 nM.

Consider `CS(=O)(=O)N1CCC(N2CC(n3cc(NC(=O)c4cccc(-c5cnn(CC(F)F)c5)n4)c(C(F)F)n3)C2)CC1` [Example 37, 6-(1-(2,2-Difluoroethyl)-1H-pyrazol-4-yl)-N-(3-(difluoromethyl)-1-(1-(1-(methylsulfonyl)piperidin-4-yl)azetidin-3-yl)-1H-pyrazol-4-yl)-2-picolinamide], for which the IC50 at IRAK4 kinase came to 5.8 nM.

As for `CN(C)C(=O)N1CCC(N2CC(n3cc(NC(=O)c4cccc(-c5cnn(CC(F)F)c5)n4)c(C(F)F)n3)C2)CC1` [Example 38, 6-(1-(2,2-Difluoroethyl)-1H-pyrazol-4-yl)-N-(3-(difluoromethyl)-1-(1-(1-(dimethylcarbamoyl)piperidin-4-yl)azetidin-3-yl)-1H-pyrazol-4-yl)-2-picolinamide], the IC50 at IRAK4 kinase was determined as 1.5 nM.

Consider `C[C@H](O)C(=O)N1CCC(N2CC(n3cc(NC(=O)c4cccc(-c5cc[nH]n5)n4)c(C(F)F)n3)C2)CC1` [Example 39, (S)—N-(3-(difluoromethyl)-1-(1-(1-(2-hydroxypropionyl)piperidin-4-yl)azetidin-3-yl)-1H-pyrazol-4-yl)-6-(1H-pyrazol-3-yl)-2-picolinamide], for which the 50% inhibitory concentration (IC50) at IRAK4 kinase was determined as 0.69 nM.

For the compound `C[C@@H](O)C(=O)N1CCC(N2CC(n3cc(NC(=O)c4cccc(-c5cc[nH]n5)n4)c(C(F)F)n3)C2)CC1` [Example 40, (R)—N-(3-(difluoromethyl)-1-(1-(1-(2-hydroxypropionyl)piperidin-4-yl)azetidin-3-yl)-1H-pyrazol-4-yl)-6-(1H-pyrazol-3-yl)-2-picolinamide], the IC50 in test [1] was found to be 26 nM; at IRAK4 kinase it was 0.59 nM.

`CS(=O)(=O)N1CCC(N2CC(n3cc(NC(=O)c4cccc(-c5cc[nH]n5)n4)c(C(F)F)n3)C2)CC1` [Example 42, N-(3-(difluoromethyl)-1-(1-(1-(methylsulfonyl)piperidin-4-yl)azetidin-3-yl)-1H-pyrazol-4-yl)-6-(1H-pyrazol-3-yl)-2-picolinamide]: the IC50 at IRAK4 kinase was determined as 1.2 nM.

These data come from patent publication US11958831B2, “Pyrazole compounds, pharmaceutical compositions thereof and use thereof” (ARTIVILA (SHENZHEN) INNOVATION CENTER, LTD., priority 2018, dated 2024).
